Assay results published in the supplement of paper PMC5908809.

How the values were obtained:
[1] = test system: normal NK cells expanded with K562-aAPC; test: percent inhibition of viability; higher = more inhibition; conditions: 72 h, IL-2 2.5 ng/mL
Procedure: (§1)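 Drug sensitivity and resistance testing on K562-aAPC-expanded normal NK cells: 5 concentrations (10-fold steps over a 10,000-fold range), 72 h at 37 °C, viability by CellTiter-Glo normalised to DMSO and benzethonium chloride controls; DSS from the fitted curve.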

[2] = test system: NKL (IL-2 2.5 ng/mL); test: drug sensitivity score (DSS) (DSS units); higher = more sensitive; extreme values may be limits of the assay; conditions: 72 h
[3] = test system: KHYG-1 (IL-2 2.5 ng/mL); test: as above; conditions: 72 h
[4] = test system: DERL-7 (IL-2 2.5 ng/mL); test: as above; conditions: 72 h
[5] = test system: SNK-6 (IL-2 2.5 ng/mL); test: as above; conditions: 72 h
[6] = test system: KAI3 (IL-2 2.5 ng/mL); test: as above; conditions: 72 h
[7] = test system: normal primary NK cells, pool 1 (3 donors) (IL-2 2.5 ng/mL); test: as above; conditions: 72 h
[8] = test system: normal primary NK cells, pool 2 (3 donors) (IL-2 2.5 ng/mL); test: as above; conditions: 72 h
[9] = test system: normal primary NK cells, pool 3 (3 donors) (IL-2 2.5 ng/mL); test: as above; conditions: 72 h
[10] = test system: NK-92 (IL-2 2.5 ng/mL); test: as above; conditions: 72 h
[11] = test system: YT (IL-2 2.5 ng/mL); test: as above; conditions: 72 h
[12] = test system: NK-YS (IL-2 2.5 ng/mL); test: as above; conditions: 72 h
[13] = test system: normal primary NK cells, pool 1 (3 donors), resting (IL-2 0 ng/mL); test: as above; conditions: 72 h
[14] = test system: IMC-1 (IL-2 20 ng/mL); test: as above; conditions: 72 h
[15] = test system: normal NK cells expanded with K562-aAPC; test: as above; conditions: 72 h; IL-2 2.5 ng/mL
Procedure: as §1

[16] = test system: NKL (IL-2 2.5 ng/mL); test: percent inhibition of viability; higher = more inhibition; conditions: 72 h
[17] = test system: KHYG-1 (IL-2 2.5 ng/mL); test: as above; conditions: 72 h
[18] = test system: DERL-7 (IL-2 2.5 ng/mL); test: as above; conditions: 72 h
[19] = test system: SNK-6 (IL-2 2.5 ng/mL); test: as above; conditions: 72 h
[20] = test system: KAI3 (IL-2 2.5 ng/mL); test: as above; conditions: 72 h
[21] = test system: normal primary NK cells, pool 1 (3 donors) (IL-2 2.5 ng/mL); test: as above; conditions: 72 h
[22] = test system: normal primary NK cells, pool 2 (3 donors) (IL-2 2.5 ng/mL); test: as above; conditions: 72 h
[23] = test system: normal primary NK cells, pool 3 (3 donors) (IL-2 2.5 ng/mL); test: as above; conditions: 72 h
[24] = test system: NK-92 (IL-2 2.5 ng/mL); test: as above; conditions: 72 h
[25] = test system: YT (IL-2 2.5 ng/mL); test: as above; conditions: 72 h
[26] = test system: NK-YS (IL-2 2.5 ng/mL); test: as above; conditions: 72 h
[27] = test system: normal primary NK cells, pool 1 (3 donors), resting (IL-2 0 ng/mL); test: as above; conditions: 72 h
[28] = test system: IMC-1 (IL-2 20 ng/mL); test: as above; conditions: 72 h

Cc1cc([C@@H](C)Nc2ccccc2C(=O)O)c2nc(N3CCOCC3)cc(=O)n2c1 [AZD-6482] (max concentration tested 2500 nM)
percent inhibition of viability [%]
Conditions	0.25 nM	2.5 nM	25 nM	250 nM	2500 nM
[1]	-0.89	-3.51	0.58	12.4	16.6
[16]	-13.3	2.45	-1.09	6.43	-3.2
[17]	-0.9	1.99	2.56	6.11	8.71
[18]	-4.2	-4.4	3.19	2.6	17
[19]	17.7	22.5	28.9	18.4	9.67
[20]	-5.85	-0.65	-3.24	1.82	7.93
[21]	-3.99	-0.34	5.64	2.68	19.6
[22]	-5.18	0.99	18.9	5.04	17.1
[23]	-9.49	-6.79	13.8	-3.71	13
[24]	-8.01	-6.53	4.21	8.86	41.9
[25]	2.09	3.67	7.43	14.2	28.4
[26]	-5.33	-1.23	-3.08	0.81	7.94
[27]	1.92	-14.9	-3.13	-1.54	14
[28]	1.39	3.21	2.72	3.93	-5.9

Conditions	drug sensitivity score
[2]	0
[3]	0
[4]	0.68
[5]	0.11
[6]	0
[7]	0.92
[8]	1.26
[9]	0.05
[10]	3.55
[11]	2.58
[12]	0
[13]	0.12
[14]	0
[15]	1.31
